This is an account of results in patent US6777434B2, “Thiazolidine-4-one derivative, method for preparing the same, and pharmaceutical composition containing the same” (CJ Corp., priority 2002, dated 2004).

One assay deals with T1, COX-1 (Homo sapiens, UniProt P23219).
T1 construct: host or cells: U-937 human lymphoma cells
The assay is described as follows: Assay for the COX-1 inhibitory activity using U-937 (PGE2 inhibition). In kind it is cell-based. The settings on record: 1 μM test compound; U-937 human lymphoma cells; PGE2 after arachidonic acid; read-out: Cyclooxygenase (COX) Inhibition (%) COX-1 (1 μM). How it is done: The collected cells were diluted with HBSS (×1, Hank's balanced salt solution) to a concentration of 1×10^6 cells/ml. 1 ml of the dilute cell solution was placed into each well of 12-well plates. 5 μl of 1 μM solution of a test compound in DMSO and 5 μl of DMSO as a control were added to the wells. The wells were incubated in CO2 incubator at 37° C. for 15 minutes. Separately, 10 mM stock solution of arachidonic acid in ethanol was diluted ten times in ethanol to prepare 1 mM solution of arachidonic acid. Arachidonic acid acts as a substrate. 10 μl of the 1 mM solution of arachidonic acid was added to each well and incubated at CO2 incubator at 37° C. for 30 minutes. The cell solution of each well was placed in a centrifuge test tube and centrifuged at 10,000 rpm at 4° C. for 5 minutes. The concentration of PGE2 in the collected cells and the supernatant was quantified by means of a monoclonal kit (Cayman Chemicals). The percentages of PGE2 inhibition in a group of the test compound-treated cells in relation to a group of the DMSO-treated cells were calculated. Based on the calculated values, the COX-1 inhibitory activities were evaluated.
(§1) The percentages of the COX inhibition were calculated according to the following equation:
(§2) % Inhibition=(concentration of PGE2 in test compound-untreated sample−concentration of PGE2 in test compound-treated sample)/(concentration of PGE2 in test compound-untreated sample)×100

In another assay the target is T2, COX-2 (Mus musculus, UniProt Q05769).
T2 construct: host or cells: RAW 264.7 cells, pre-treated with aspirin, then induced with interferon and LPS
T2 sequence (Q05769 18-604): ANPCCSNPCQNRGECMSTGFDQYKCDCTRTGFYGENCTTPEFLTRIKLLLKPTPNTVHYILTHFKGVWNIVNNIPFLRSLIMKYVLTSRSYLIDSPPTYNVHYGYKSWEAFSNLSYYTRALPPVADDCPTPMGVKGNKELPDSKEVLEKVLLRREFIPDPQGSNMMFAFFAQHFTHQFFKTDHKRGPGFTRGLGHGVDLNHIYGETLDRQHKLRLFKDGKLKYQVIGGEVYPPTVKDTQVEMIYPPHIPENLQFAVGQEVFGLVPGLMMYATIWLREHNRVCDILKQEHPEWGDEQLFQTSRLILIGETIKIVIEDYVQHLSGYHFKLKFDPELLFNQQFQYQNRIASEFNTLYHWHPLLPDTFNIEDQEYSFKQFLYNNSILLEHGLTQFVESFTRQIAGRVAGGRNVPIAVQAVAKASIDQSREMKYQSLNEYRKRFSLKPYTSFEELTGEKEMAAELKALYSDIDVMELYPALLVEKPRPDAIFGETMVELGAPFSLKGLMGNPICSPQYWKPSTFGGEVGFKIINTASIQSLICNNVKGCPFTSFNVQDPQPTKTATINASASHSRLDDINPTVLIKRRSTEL
Description: Assay for the COX-2 inhibitory activity using RAW 264.7 cell line (PGE2 inhibition). In kind it is cell-based. As to conditions: for COX-2 inhibitory activity compared with the reference: 10 nM, RAW 264.7, comparison with Valdecoxib; for inhibition (%) ratio of COX-2 to COX-1 compared with the reference Valdecoxib: COX-2 at 10 nM (RAW 264.7) versus COX-1 at 1 μM (U-937); for inhibition at 0.01 µM: RAW264.7, 10 nM test compound, RAW 264.7 cells, interferon and LPS, 18 hours, PGE2 by EIA, read-out: Cyclooxygenase (COX) Inhibition (%) COX-2 (10 nM). How it is done:
Each well was treated with 250 μM of aspirin and incubated at 37° C. for 2 hours. After the culture media were replaced with new culture media, the new culture media were treated with a test compound (10 nM) and incubated for 30 minutes. Then, each well was treated with interferon ? (100 units/ml) and lipopolysaccharide (LPS, 100 ng/ml) and incubated for 18 hours. The culture media were transferred to another test tubes. The concentration of PGE2 was quantified by means of the EIA kit (Cayman Chemicals):
as §1, §2

Each structure is given as a SMILES string.

T1 sequence (P23219 24-599): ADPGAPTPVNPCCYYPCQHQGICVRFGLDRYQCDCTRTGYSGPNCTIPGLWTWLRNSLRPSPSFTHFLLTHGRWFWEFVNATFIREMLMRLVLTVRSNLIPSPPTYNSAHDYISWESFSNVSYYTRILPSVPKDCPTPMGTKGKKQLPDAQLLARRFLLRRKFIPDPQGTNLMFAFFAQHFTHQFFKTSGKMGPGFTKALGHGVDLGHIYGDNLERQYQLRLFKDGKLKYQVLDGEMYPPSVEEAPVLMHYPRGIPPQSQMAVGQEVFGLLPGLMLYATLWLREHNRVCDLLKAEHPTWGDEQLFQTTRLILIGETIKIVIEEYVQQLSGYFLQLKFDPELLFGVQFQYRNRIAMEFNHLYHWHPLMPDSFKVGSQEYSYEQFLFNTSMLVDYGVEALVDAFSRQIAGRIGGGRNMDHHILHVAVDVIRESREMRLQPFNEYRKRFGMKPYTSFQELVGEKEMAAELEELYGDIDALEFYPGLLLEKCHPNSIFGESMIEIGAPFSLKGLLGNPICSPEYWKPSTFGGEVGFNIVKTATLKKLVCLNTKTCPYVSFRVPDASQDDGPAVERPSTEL

With `Cc1ccc(N2C(=O)CSC2c2ccc(S(C)(=O)=O)cc2)cc1F` (stereo not drawn) [Example 2, 3-(3-fluoro-4-methylphenyl)-2-(4-methanesulfonylphenyl)thiazolidine-4-one], at COX-1, the inhibition at 1 µM worked out at 29.2%. In addition, at COX-2, the “COX-2 inhibitory activity compared with the reference” value was “significantly higher than the reference”, the “inhibition (%) ratio of COX-2 to COX-1 compared with the reference Valdecoxib” value (from here on “inhibition (%) ratio”) is listed as “significantly higher than that in the reference” and the inhibition at 0.01 µM was found to be 16%.
With `CS(=O)(=O)c1ccc(C2SCC(=O)N2c2ccccc2)cc1` (stereo not drawn) [Example 4, 2-(4-methanesulfonylphenyl)-3-phenylthiazolidine-4-one], at COX-1, the inhibition at 1 µM stood at 26%. Moreover, at COX-2, the “COX-2 inhibitory activity compared with the reference” value is on record as “significantly higher than the reference”, the “inhibition (%) ratio” value is “significantly higher than that in the reference” and the inhibition at 0.01 µM turned out to be 16%.
With `CS(=O)(=O)c1ccc(C2SCC(=O)N2c2ccc(C#N)cc2)cc1` (stereo not drawn) [Example 5, 3-(4-cyanophenyl)-2-(4-methanesulfonylphenyl)thiazolidine-4-one], the inhibition at 1 µM at COX-1 turned out to be 10.1%. In addition, at COX-2, the “inhibition (%) ratio” value is “significantly higher than that in the reference” and the inhibition at 0.01 µM was found to be 6.54%.
As for `CS(=O)(=O)c1ccc(C2SCC(=O)N2c2cc(F)cc(F)c2)cc1` (stereo not drawn) [Example 6, 3-(3,5-difluorophenyl)-2-(4-methanesulfonylphenyl)thiazolidine-4-one], the inhibition at 1 µM at COX-1 worked out at 38%. Moreover, at COX-2, the “COX-2 inhibitory activity compared with the reference” value is reported as “significantly higher than the reference”, the “inhibition (%) ratio” value was “significantly higher than that in the reference” and the inhibition at 0.01 µM turned out to be 12.1%.

Usually inhibition stands for the drop in the measured response relative to a control, in per cent.
